According to article PMC4370687, “Functional Characterization of the 1,5-Benzodiazepine Clobazam and Its Major Active Metabolite N-Desmethylclobazam at Human GABAA Receptors Expressed in Xenopus laevis Oocytes” (PLoS ONE, 2015):
Marks after values point to notes of the source that are not given here.

What was measured:
[1] = biological target: T1, human α3β2γ2S GABAAR (Homo sapiens, UniProt P18507+P34903+P47870); assay: Potentiation of GABA EC20-evoked currents, TEVC in Xenopus oocytes; type: cell-based; details: for Imax ± S.E.M.: % of the response evoked by GABA EC20 (EC20 response = 100%)
T1 construct: expressed in transfected cells; host or cells: Xenopus laevis oocytes (cRNA injection, 1:1:1)
T1 sequence (P34903 29-492, one chain of several): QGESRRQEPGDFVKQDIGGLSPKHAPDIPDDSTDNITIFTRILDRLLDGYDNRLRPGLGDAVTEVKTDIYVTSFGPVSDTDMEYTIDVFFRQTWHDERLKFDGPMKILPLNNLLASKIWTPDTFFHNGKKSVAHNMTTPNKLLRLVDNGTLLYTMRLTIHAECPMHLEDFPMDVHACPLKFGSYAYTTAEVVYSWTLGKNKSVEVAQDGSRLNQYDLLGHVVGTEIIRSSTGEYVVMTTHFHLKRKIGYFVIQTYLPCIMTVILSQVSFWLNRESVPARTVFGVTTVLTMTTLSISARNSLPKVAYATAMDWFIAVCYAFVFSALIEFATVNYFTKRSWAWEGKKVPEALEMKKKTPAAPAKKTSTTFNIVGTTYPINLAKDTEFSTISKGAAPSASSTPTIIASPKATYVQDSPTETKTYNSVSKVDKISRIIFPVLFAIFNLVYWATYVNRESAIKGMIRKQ
T1 sequence (P18507 40-467 isoform P18507-1 limits assumed, one chain of several): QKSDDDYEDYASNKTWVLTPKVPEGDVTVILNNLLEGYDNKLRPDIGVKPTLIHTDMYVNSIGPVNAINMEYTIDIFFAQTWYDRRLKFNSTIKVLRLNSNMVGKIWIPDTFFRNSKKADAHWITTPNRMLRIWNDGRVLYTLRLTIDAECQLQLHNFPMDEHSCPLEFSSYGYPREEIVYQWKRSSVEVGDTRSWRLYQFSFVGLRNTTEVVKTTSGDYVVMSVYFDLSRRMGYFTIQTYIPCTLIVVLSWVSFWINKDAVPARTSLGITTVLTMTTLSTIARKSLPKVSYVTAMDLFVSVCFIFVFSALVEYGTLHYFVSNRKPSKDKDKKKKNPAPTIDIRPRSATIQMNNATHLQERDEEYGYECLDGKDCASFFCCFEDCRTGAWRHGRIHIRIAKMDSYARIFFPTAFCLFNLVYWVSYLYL
Procedure: (§1) The cDNAs encoding the human GABAAR subunits were linearized with DraIII (α1, α2, α3, α5 and α6), SmaI (β2 and γ2S) or StuI (δ) and used as templates for in vitro cRNA synthesis using the T7 mMESSAGE mMACHINE High Yield Capped RNA Transcription Kit (Life Technologies Corporation, Carlsbad, CA, USA). Except where otherwise indicated, Xenopus oocytes were injected with 36.8 nL cRNA solution encoding for α1β2γ2S, α2β2γ2S, α3β2γ2S and α5β2γ2S GABAARs in a 1:1:1 α:β2:γ2S ratio (2.7 ng/μL of each subunit), with 46 nL cRNA solution encoding for the α6β2δ GABAAR in a 10:1:10 α6:β2:δ ratio (1:0.1:1 μg/μL), with 18 nL cRNA solution encoding for the α1β2 GABAAR in a 1:1 α1:β2 ratio (0.6:0.6 μg/μL), or with 46 nL cRNA encoding for α6β2 (α6:β2 ratio: 1:0.1 μg/μL). Following injection, the oocytes were incubated at 18°C in modified Barth’s solution [88 mM NaCl, 1 mM KCl, 15 mM HEPES (pH 7.5), 2.4 mM NaHCO3, 0.41 mM CaCl2, 0.82 mM MgSO4, 0.3 mM Ca(NO3)2, 100 U/mL penicillin and 100 μg/mL streptomycin]. Electrophysiological recordings were performed 3 to 6 days after injection.
(§2) Electrophysiological recordings were performed using the TEVC technique on Xenopus oocytes expressing various GABAAR combinations using a protocol adapted from previous studies. […] Cells were impaled with agar-plugged 0.5–1 MΩ electrodes containing 3 M KCl and voltage clamped at −70 mV by a Gene Clamp 500B amplifier (Axon Instruments, Union City, CA, USA) and recorded with pClamp 10 (Windows version, Molecular Devices, LLC, Sunnyvale, CA, USA). The oocytes were continuously perfused with Ringer buffer, and the test compounds were applied in the perfusate. Experiments were performed at room temperature and each data point represents the mean ± S.E.M. value of recordings performed on at least two oocytes from at least two different batches of oocytes. The recorded baseline-to-peak current amplitudes were analyzed using Clampfit 10.1 (Axon Instruments, Union City, CA, USA). […] The presence of δ in cell surface-expressed receptors in α6β2δ-injected oocytes was confirmed on a routinely basis using the δ-GABAAR selective PAM DS2 (1 μM). Furthermore, taking advantage of the differential sensitivity of αβ and αβδ receptors to Zn^2+ as antagonist, 1 μM ZnCl2 was used to verify that a homogenous population of ternary α6β2δ receptor complexes was expressed in these oocytes.
(§3) Two to five minutes of wash time between each application were permitted to overcome receptor desensitization. […] Concentration-response curves for the benzodiazepines were fitted using Equation 1.

[2] = biological target: T2, human α5β2γ2S GABAAR (Homo sapiens, UniProt P18507+P31644+P47870); assay: as above; type: cell-based; details: for Imax ± S.E.M.: % of the response evoked by GABA EC20 (EC20 response = 100%)
T2 construct: expressed in transfected cells; host or cells: Xenopus laevis oocytes (cRNA injection, 1:1:1)
T2 sequence (P31644 32-462, one chain of several): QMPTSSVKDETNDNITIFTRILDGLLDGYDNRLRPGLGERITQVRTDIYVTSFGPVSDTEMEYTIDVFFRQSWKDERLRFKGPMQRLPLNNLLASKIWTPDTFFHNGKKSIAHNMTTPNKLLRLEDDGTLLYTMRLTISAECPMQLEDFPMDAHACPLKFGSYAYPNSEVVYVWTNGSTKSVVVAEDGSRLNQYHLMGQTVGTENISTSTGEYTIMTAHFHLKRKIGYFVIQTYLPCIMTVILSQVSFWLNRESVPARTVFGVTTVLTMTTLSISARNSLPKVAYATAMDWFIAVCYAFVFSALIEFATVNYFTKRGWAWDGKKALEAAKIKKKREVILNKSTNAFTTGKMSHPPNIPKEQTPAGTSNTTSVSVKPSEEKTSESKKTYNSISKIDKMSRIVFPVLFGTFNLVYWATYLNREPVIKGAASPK
T2 sequence (P18507 40-467 isoform P18507-1 limits assumed, one chain of several): as the sequence (P18507 40-467 isoform P18507-1 limits assumed, one chain of several) above
Procedure: as §1, §2, §3

[3] = biological target: T3, human α6β2 GABAAR (Homo sapiens, UniProt P47870+Q16445); assay: as above; type: cell-based
T3 construct: expressed in transfected cells; host or cells: Xenopus laevis oocytes (cRNA injection)
T3 sequence (Q16445 20-453, one chain of several): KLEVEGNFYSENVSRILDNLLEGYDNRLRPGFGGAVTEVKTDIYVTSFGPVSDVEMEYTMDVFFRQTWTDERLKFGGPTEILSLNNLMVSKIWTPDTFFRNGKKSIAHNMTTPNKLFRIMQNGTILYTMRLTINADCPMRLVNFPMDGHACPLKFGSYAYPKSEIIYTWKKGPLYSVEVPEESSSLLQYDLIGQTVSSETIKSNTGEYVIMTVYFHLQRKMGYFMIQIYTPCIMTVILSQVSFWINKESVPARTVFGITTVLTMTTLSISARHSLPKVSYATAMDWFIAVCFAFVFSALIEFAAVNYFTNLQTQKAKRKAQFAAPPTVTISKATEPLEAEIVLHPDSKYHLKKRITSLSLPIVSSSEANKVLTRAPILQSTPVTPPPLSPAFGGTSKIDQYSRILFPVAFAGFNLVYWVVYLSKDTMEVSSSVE
Procedure: as §1, §2, §3

[4] = biological target: T4, human α6β2δ GABAAR (Homo sapiens, UniProt P47870+Q16445); assay: as above; type: cell-based; details: for EC50: co-applied with GABA EC20, N-desmethylclobazam value estimated, curve not saturated at 1 mM; for Imax ± S.E.M.: % of the response evoked by GABA EC20 (EC20 response = 100%)
T4 construct: expressed in transfected cells; host or cells: Xenopus laevis oocytes (cRNA injection, α6:β2:δ 10:1:10)
T4 sequence (Q16445 20-453, one chain of several): as above
T4 sequence (O14764 25-452 partner, one chain of several): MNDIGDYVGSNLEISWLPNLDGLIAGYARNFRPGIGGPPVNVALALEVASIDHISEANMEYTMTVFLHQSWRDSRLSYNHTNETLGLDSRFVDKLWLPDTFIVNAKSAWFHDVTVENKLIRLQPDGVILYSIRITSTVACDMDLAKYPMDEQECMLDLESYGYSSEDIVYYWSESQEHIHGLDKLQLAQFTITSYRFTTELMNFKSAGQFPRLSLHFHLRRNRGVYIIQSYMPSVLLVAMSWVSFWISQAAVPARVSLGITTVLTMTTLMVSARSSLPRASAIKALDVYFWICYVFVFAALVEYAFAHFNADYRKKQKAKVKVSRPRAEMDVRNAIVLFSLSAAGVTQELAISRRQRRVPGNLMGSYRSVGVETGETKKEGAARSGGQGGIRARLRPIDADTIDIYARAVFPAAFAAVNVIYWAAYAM
Procedure: as §1, §2, §3

[5] = biological target: T5, human α2β2γ2S GABAAR (Homo sapiens, UniProt P18507+P47869+P47870); assay: as above; type: cell-based; details: for Imax ± S.E.M.: % of the response evoked by GABA EC20 (EC20 response = 100%)
T5 construct: expressed in transfected cells; host or cells: Xenopus laevis oocytes (cRNA injection, α:β2:γ2S 1:1:1; 1:1:5 in the zolpidem comparison)
T5 sequence (P47869 29-451, one chain of several): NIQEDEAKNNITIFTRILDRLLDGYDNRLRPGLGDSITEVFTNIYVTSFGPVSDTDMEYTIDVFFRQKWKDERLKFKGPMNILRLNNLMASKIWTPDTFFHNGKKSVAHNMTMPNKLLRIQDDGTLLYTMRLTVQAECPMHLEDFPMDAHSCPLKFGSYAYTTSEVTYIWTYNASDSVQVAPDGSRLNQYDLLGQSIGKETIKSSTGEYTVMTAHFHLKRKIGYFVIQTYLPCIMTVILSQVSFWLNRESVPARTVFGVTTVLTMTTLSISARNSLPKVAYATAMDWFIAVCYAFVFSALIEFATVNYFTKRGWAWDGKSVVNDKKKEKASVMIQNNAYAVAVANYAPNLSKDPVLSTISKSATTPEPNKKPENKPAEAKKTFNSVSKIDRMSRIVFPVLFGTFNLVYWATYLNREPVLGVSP
T5 sequence (P18507 40-467 isoform P18507-1 limits assumed, one chain of several): as the sequence (P18507 40-467 isoform P18507-1 limits assumed, one chain of several) above
Procedure: as §1, §2, §3
To address this aspect, we compared the maximum responses mediated by saturating concentrations (3 μM) of clobazam, N-desmethylclobazam, and clonazepam at the GABAARs with the maximal responses mediated by a saturating concentration of diazepam, a 1,4-benzodiazepine often referred to as a “full benzodiazepine agonist”. […] We also compared the maximum degree of potentiation mediated by clobazam at the α2β2γ2S GABAAR with the maximal responses induced by a saturating concentration of zolpidem. […] In this experiment cRNA for α2β2γ2S was injected in a ratio of 1:1:5 (α2:β2:γ2S) to facilitate the expression of a homogenous population of γ2S-containing complexes.

[6] = biological target: T6, human α1β2γ2S GABAAR (Homo sapiens, UniProt P14867+P18507+P47870); assay: cell-based
T6 sequence (P18507 40-467 isoform P18507-1 limits assumed, one chain of several): as above
Procedure: (§5) Electrophysiological recordings were performed using the TEVC technique on Xenopus oocytes expressing various GABAAR combinations using a protocol adapted from previous studies [44, 45]. […] Cells were impaled with agar-plugged 0.5–1 MΩ electrodes containing 3 M KCl and voltage clamped at −70 mV by a Gene Clamp 500B amplifier (Axon Instruments, Union City, CA, USA) and recorded with pClamp 10 (Windows version, Molecular Devices, LLC, Sunnyvale, CA, USA). The oocytes were continuously perfused with Ringer buffer, and the test compounds were applied in the perfusate. Experiments were performed at room temperature and each data point represents the mean ± S.E.M. value of recordings performed on at least two oocytes from at least two different batches of oocytes. The recorded baseline-to-peak current amplitudes were analyzed using Clampfit 10.1 (Axon Instruments, Union City, CA, USA).

[7] = humans; cited from earlier work
[8] = system: rat α3β3γ2L GABAAR; details: patch clamp, cited from earlier work; for EC50: 3 μM GABA (EC10–EC20), HEK-293T cells; for Imax: % of the responses evoked by GABA EC10–EC20, HEK-293T cells
[9] = biological target: T6, human α1β2γ2S GABAAR; details: for Imax ± S.E.M.: % of the response evoked by GABA EC20 (EC20 response = 100%)
Procedure: as §5

[10] = system: human α1,2,3,5β2γ2S GABAARs; details: cited from earlier work
[11] = biological target: T6, human α1β2γ2S GABAAR; assay: Zinc-mediated inhibition of GABA EC80-evoked currents, TEVC in Xenopus oocytes; type: cell-based; set-up: expressed in transfected cells; host or cells: Xenopus laevis oocytes (cRNA injection, α:β2:γ2S 1:1:1); details: 100 μM Zn2+, 100 μM GABA (EC80), mean ± S.E.M.
Procedure: as §1, with “Following injection, the oocytes were incubated at 18°C in modified Barth’s solution [88 mM NaCl, 1 mM KCl, 15 mM HEPES (pH 7.5), 2.4 mM NaHCO3, 0.41 mM CaCl2, 0.82 mM MgSO4, 0.3 mM Ca(NO3)2, 100 U/mL penicillin and 100 μg/mL streptomycin]. Electrophysiological recordings were performed 3 to 6 days after injection.” left out
(§4) Electrophysiological recordings were performed using the TEVC technique on Xenopus oocytes expressing various GABAAR combinations using a protocol adapted from previous studies. […] Cells were impaled with agar-plugged 0.5–1 MΩ electrodes containing 3 M KCl and voltage clamped at −70 mV by a Gene Clamp 500B amplifier (Axon Instruments, Union City, CA, USA) and recorded with pClamp 10 (Windows version, Molecular Devices, LLC, Sunnyvale, CA, USA). […] The recorded baseline-to-peak current amplitudes were analyzed using Clampfit 10.1 (Axon Instruments, Union City, CA, USA). […]

[12] = biological target: T7, human α1β2 GABAAR (Homo sapiens, UniProt P14867+P47870); assay: as above; type: cell-based; details: 100 μM Zn2+, 10 μM GABA (EC80), mean ± S.E.M.
T7 construct: expressed in transfected cells; host or cells: Xenopus laevis oocytes (cRNA injection, α1:β2 1:1)
T7 sequence (P14867 28-456): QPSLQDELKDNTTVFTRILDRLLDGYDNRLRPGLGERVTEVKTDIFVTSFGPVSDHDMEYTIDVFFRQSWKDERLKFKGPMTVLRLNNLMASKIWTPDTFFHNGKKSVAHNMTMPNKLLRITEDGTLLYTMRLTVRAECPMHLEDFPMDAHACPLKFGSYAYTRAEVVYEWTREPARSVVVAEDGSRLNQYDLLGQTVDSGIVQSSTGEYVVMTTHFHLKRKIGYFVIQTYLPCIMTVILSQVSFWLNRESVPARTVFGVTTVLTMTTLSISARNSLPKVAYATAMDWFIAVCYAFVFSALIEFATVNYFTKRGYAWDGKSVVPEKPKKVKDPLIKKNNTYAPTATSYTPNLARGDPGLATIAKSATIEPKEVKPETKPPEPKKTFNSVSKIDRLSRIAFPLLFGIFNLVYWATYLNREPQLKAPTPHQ
T7 sequence (P47870 26-474 isoform P47870-1 limits assumed): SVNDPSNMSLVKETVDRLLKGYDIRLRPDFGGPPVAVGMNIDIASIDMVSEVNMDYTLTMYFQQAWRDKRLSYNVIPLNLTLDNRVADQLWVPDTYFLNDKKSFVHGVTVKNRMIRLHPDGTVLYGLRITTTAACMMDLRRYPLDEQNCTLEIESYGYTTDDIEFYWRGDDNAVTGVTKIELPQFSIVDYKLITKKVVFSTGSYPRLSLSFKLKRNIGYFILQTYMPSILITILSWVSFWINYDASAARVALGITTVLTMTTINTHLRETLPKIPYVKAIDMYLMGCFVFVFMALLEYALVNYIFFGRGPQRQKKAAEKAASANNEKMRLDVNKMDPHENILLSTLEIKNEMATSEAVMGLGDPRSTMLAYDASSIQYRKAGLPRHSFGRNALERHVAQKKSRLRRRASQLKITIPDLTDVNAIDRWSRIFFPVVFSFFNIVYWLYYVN
Procedure: as §1, with “Following injection, the oocytes were incubated at 18°C in modified Barth’s solution [88 mM NaCl, 1 mM KCl, 15 mM HEPES (pH 7.5), 2.4 mM NaHCO3, 0.41 mM CaCl2, 0.82 mM MgSO4, 0.3 mM Ca(NO3)2, 100 U/mL penicillin and 100 μg/mL streptomycin]. Electrophysiological recordings were performed 3 to 6 days after injection.” left out
as §4

[13] = system: α1β2γ1 receptors; details: Xenopus oocytes; cited from earlier work
[14] = 1 mM compound, in % of the GABA EC20 response, curve not saturated

Row | Structure (SMILES) | EC50 [1] | Imax ± S.E.M. [1] | EC50 [2] | Imax ± S.E.M. [2] | EC50 ([4]; EC50, PAM) | EC50 [5] | Imax ± S.E.M. [5] | EC50 [6] | plasma half-life [7] | EC50 [8] | Imax [8] | Imax ± S.E.M. [9] | fold higher binding affinity at α2β2γ2S compared to α1β2γ2S [10] | Imax ± S.E.M. [4] | also measured
1 | O=C1CC(=O)N(c2ccccc2)c2cc(Cl)ccc2N1 [N-desmethylclobazam] | 282 nM | 270 ± 27% | 98 nM | 233 (248 and 217) ^b % | ~300000 nM | 138 nM | 270 ± 20% | 151 nM | 79 h | 550 nM | 270% | 203 ± 8.5% | 4.3 fold | – | EC50 [3]: ~300000 nM; current evoked by 1 mM (given instead of Imax) [3, 14]: 2350 ± 200 ^a %; fold potentiation of the GABA EC20-evoked response ([4]; 1 mM compound, curve not saturated): ~24 fold; current evoked by 1 mM (given instead of Imax) [4, 14]: 2420 ± 210 ^a %
2 | [Cl-].[Cl-].[Zn+2] [Zn^2+, ZnCl2] | – | – | – | – | – | – | – | – | – | – | – | – | – | – | degree of inhibition of GABA EC80-evoked currents [11]: 4.7 ± 4.6%; degree of inhibition of GABA EC80-evoked currents [12]: 77 ± 6.3%
3 | CN1C(=O)CC(=O)N(c2ccccc2)c2cc(Cl)ccc21 [clobazam] | 240 nM | 269 ± 0.8% | 174 nM | 216 ± 7.0% | 55000 nM | 138 nM | 261 ± 6.7% | 132 nM | 36 h | 490 nM | 487% | 256 ± 12% | 2.5 fold | 528 ± 46% | potentiation of GABA EC5-EC10-evoked responses [13]: negligible potentiation
4 | O=C1CN=C(c2ccccc2Cl)c2cc([N+](=O)[O-])ccc2N1 [clonazepam] | 16 nM | 316 (334 and 297) ^b % | 20.9 nM | 255 ± 25% | 29000 nM | 7.4 nM | 253 ± 17% | 15.5 nM | – | 90 nM | 263% | 209 ± 14% | – | 283 ± 38% | fold more potent than N-desmethylclobazam as a PAM ([1]; EC50 ratio): 18 fold; fold more potent than clobazam as a PAM ([1]; EC50 ratio): 15 fold; fold more potent than N-desmethylclobazam as a PAM ([2]; EC50 ratio): 5 fold; fold more potent than clobazam as a PAM ([2]; EC50 ratio): 8 fold; EC50 ([4]; pEC50 ± S.E.M., PAM): 29500 nM; fold more potent than N-desmethylclobazam as a PAM ([5]; EC50 ratio): 19 fold; fold more potent than clobazam as a PAM ([5]; EC50 ratio): 19 fold; fold more potent than N-desmethylclobazam as a PAM ([9]; EC50 ratio): 10 fold; fold more potent than clobazam as a PAM ([9]; EC50 ratio): 9 fold
5 | CN1C(=O)CN=C(c2ccccc2)c2cc(Cl)ccc21 [diazepam] | – | – | – | – | – | – | – | – | – | – | 508% | – | – | – | –
6 | Cc1ccc(-c2nc3ccc(C)cn3c2CC(=O)N(C)C)cc1 [zolpidem] | – | – | – | – | – | – | – | – | – | – | – | – | – | – | fold potentiation of GABA EC20-evoked currents ([5]; saturating concentration (3 μM)): 2.7 fold
